Laboratory results reported in patent US20240239786A1, “COMPOSITIONS AND METHODS FOR THE TREATMENT AND PREVENTION OF CANCER” (Yale University, priority 2021, published 2024).

Columns and labels:
SKOV3 cells = assay: Clonogenic assay, SKOV3; assay type: cell-based; settings: DB4 at 6 μM, 14 days
Protocol: Cells were plated for 24 hr, pre-treated with DB4 for 1 hr, and then treated with various concentrations of olaparib for 14 days. Colonies were stained and determined for clonogenic survival.
To further substantiate the effectiveness of DB4 and mitigate the issue of off-target effects with a higher concentration range of drugs used in the MTS cytotoxicity assay, clonogenic assays were carried out to determine the long-term survival of cells in response to treatments.
The assay was conducted as described previously (Lin Z P et al., 2014, Molecular Cancer Res, 12:381-393). Cells were plated at various densities in 6-well plates in triplicate. After 24 hr of incubation, cells were treated continuously with various concentrations of olaparib, DB4, or both drugs in combination. After 12-14 days, colonies were fixed/stained with crystal violet solution and counted to determine the percentage of survival using a GelDoc imaging system with QuantityOne software (Bio-Rad, Hercules, CA).

[1] = Chemical stability of DB4: potency after pre-incubation in cell-free medium (EdU readout); assay type: physicochemical; settings: pre-incubated in cell-free medium at 37° C. up to 72 hr; PEO4 cells
Protocol: (§1) DB4 remained mostly active and intact after 72 hr in the culture medium. The dose response curve of DB4 in DNA synthesis inhibition in PEO4 cells was generated as determined by EdU flow cytometric analysis. […] PEO4 cells were treated with these media for 24 hr. The level of DNA synthesis inhibition was determined to interpolate and calculate % DB4 remaining compared with the control at 0 hr. FIG. 5B depicts representative results for remaining DB4 after DB4 (MW=496.1) was added to the culture medium at 50 μM for 0 hr, 24 hr, 48 hr, or 72 hr at 37° C. FIG. 5C depicts representative mass spectrum obtained from mass spectrometry that was run to detect the level of the 496.13 ion at 0 hr. FIG. 5D depicts representative mass spectrum obtained from mass spectrometry that was run to detect the level of the 496.13 ion at 72 hr.
(§2) To ensure that DB4 remained chemically stable, the time course study was performed by determining the potency of DB4 following a pre-incubation in the cell-free medium at 37° C. for up to 72 hr. Cells were treated for 24 hr with the medium containing pre-incubated DB4 and DNA synthesis was determined by the EdU incorporation assay.

PD-L1 = PD-L1 level in BRCA-wild type PEO4 cells; assay type: cell-based
Text: FIG. 21A depicts representative effects of DB4 and/or olaparib on BRCA-wild type PEO4 cells after 24, 48, and 72 hr. FIG. 21B depicts representative effects of DB4 and/or olaparib on the level of DSBs in BRCA-wild type PEO4 cells. FIG. 21C depicts representative effects of DB4 and/or olaparib on the level of PD-L1 protein in BRCA-wild type PEO4 cells.
FIG. 22 depicts representative effects of DB4 and/or olaparib on PD-L1-positive populations of BRCA-mutated PEO1 and BRCA-wild type PEO4 cells. DB4 and/or olaparib increased the PD-L1-positive population of BRCA-wild type PEO4 cells in the presence of IFNγ.

[2] = Chemical stability of DB4 in culture medium by mass spectrometry; assay type: physicochemical; settings: 50 μM, 37° C., 72 hr vs 0 hr
Protocol: as §1, §2
DB4 was dissolved in DMEM medium at 50 μM and incubated for 0 hr, 24 hr, 48 hr, and 72 hr at 37° C. and flash frozen after incubation. […]

[3] = cited from earlier work
[4] = cited from earlier work; remark: listed apart in the source
[5] = biological target: T1, ribonucleotide reductase (RNR) (Homo sapiens, UniProt P31350); settings: fold more potent than hydroxyurea; cited from earlier work
T1 sequence (P31350 1-389): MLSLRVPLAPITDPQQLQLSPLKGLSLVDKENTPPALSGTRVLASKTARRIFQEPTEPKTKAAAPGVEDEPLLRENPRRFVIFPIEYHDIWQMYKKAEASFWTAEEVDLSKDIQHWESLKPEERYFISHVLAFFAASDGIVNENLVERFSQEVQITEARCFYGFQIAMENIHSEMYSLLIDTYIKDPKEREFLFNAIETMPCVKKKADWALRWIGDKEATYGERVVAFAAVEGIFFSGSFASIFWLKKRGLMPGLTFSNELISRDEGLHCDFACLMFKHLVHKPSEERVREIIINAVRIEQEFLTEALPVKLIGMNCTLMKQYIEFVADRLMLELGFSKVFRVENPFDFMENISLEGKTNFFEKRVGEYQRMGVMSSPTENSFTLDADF

| SMILES | clonogenic survival in the presence of olaparib (SKOV3 cells) | activity to inhibit DNA synthesis after pre-incubation [1] | PD-L1 protein level (PD-L1; BRCA-wild type EOC cells) | PD-L1-positive population (PD-L1; PEO4 cells in the presence of IFNγ) | level of DB4 by mass spectrometry [2] | half-life in plasma [3] | side effects ([4]; patients) | clinical response rates ([4]; phase I/II studies) | potency relative to the RNR inhibitor hydroxyurea [5] |
| --- | --- | --- | --- | --- | --- | --- | --- | --- | --- |
| C=CCn1c(SCc2cccc(Cl)c2)nnc1C1CCN(Cc2nc3ccccc3s2)CC1 [DB4, 2-[(4-{4-allyl-5-[(3-chlorobenzyl)thio]-4H-1,2,4-triazol-3-yl}-1-piperidinyl)methyl]-1,3-benzothiazole] | effectively reduced the clonogenic survival | more than 82% | up-regulation of PD-L1 protein | significantly increased | remained similar to that of the 0 hr control |  |  |  |  |
| NC(=S)NN=Cc1ncccc1N [triapine, 3-aminopyridine-2-carboxaldehyde-thiosemicarbazone, reference compound] |  |  |  |  |  | about 2 hr | methemoglobinemia and dyspnea | more than 80% | 1,000 times |
